PubChem BioAssay AID1159559 (GlaxoSmithKline (GSK), 2015)
pIC50: −log10 of the molar value. Activity calls are given as the source filed them.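 The calls were made as follows: active = compounds whose IC50 against parasite growth in infected mouse cells is below 50000 nM; inactive = the rest.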

Test system: T. cruzi Tulahuen in NIH-3T3, beta-gal fluorescence, 4 d
Experiment: anti-Chagas amastigote proliferation inhibitors – cell-based (AID 1159559)

Row | Compound | pIC50 | IC50
1 | Nc1cc(-c2ccc3ncnc(N4CCOCC4)c3c2)cnc1N | 5.80 | –
2 | Cc1cc(N2CCc3ccccc3C2)nc(Nc2ccc(S(=O)(=O)N3CCOCC3)cc2)n1 | – | > 50 µM (inactive)
3 | CN(C)Cc1ccc(N2CCC(NS(=O)(=O)c3ccc(Cl)cc3)CC2)cc1 | 6.10 | –
4 | CC(C)(C)c1csc(NC(=O)c2ccc([N+](=O)[O-])s2)n1 | 6.80 | –
5 | O=C(COc1ccccc1)Nc1ccccc1C(=O)Nc1nccs1 | – | > 50 µM (inactive)
6 | CNc1cncc(C2CCCN2C(=O)Cc2coc3cc(C)ccc23)n1 (stereo not drawn) | 6.80 | –
7 | COc1ccc2nccc([C@H](O)CN3CC[C@H](NC(=O)c4ccc(Br)cc4)[C@@H](O)C3)c2n1 | 6.60 | –
8 | Cc1cn[nH]c1C1CCCN(Cc2nc3ccccc3n2C)C1 (stereo not drawn) | 5.49 | –
9 | O=C(CN(Cc1ccccn1)Cc1ccccn1)NCc1ccc2c(c1)OCO2 | 5.10 | –
10 | CC(C)COC(=O)Nc1ccc(N2CCC(CNS(=O)(=O)c3ccccc3)CC2)c(F)c1 | 5.00 | –
11 | N#Cc1cnc(Nc2cccc(CCN3CCOCC3)c2)nc1Nc1ccccc1C(N)=O | 5.89 | –
12 | COc1cnc2ccc(=O)n(CCN3CCC(NC(=O)c4ccc(Cl)cc4)CC3)c2c1 | 6.89 | –
13 | Cc1cc(Nc2ccc(C#N)c(Cl)c2C)n[nH]1 | 4.60 | –
14 | COc1ccc(-c2cc(C)no2)cc1S(=O)(=O)Nc1ccc(F)c(Cl)c1 | 5.80 | –
15 | COc1ccnc2[nH]cc(-c3cc(C(=O)N[C@H](CO)c4ccccc4)co3)c12 | 5.89 | –
16 | COc1cc(Nc2nccc(Nc3onc(C)c3C)n2)cc(S(=O)(=O)C2CCOCC2)c1 | 5.20 | –
17 | CCCCn1c(=O)c2c(N)onc2n(CCCC)c1=O | 4.60 | –
18 | COc1cnc2ccc(=O)n(CCN3CCC(NC(=O)Cc4ccc(Cl)c(Cl)c4)CC3)c2c1 | 6.49 | –
19 | COc1ccc(Cl)cc1CC(=O)Nc1n[nH]c(-c2ccccn2)n1 | 5.00 | –
20 | C[C@@H](Oc1cc(-n2cnc3ccc(C(O)CO)cc32)sc1C(N)=O)c1ccccc1C(F)(F)F (stereo partly drawn) | 5.30 | –
21 | Cc1ccc(C)c(OC2CCN(C(=O)C(C)n3ccnc3)CC2)c1 (stereo not drawn) | 6.80 | –
22 | O=C(NCCNc1noc(-c2ccc([N+](=O)[O-])cc2)n1)c1ccc(Cl)cc1 | 5.70 | –

Row | Compound | pIC50 | IC50
23 | COc1ccc(-c2csc(NC(=O)c3ccc([N+](=O)[O-])s3)n2)cc1 | 6.80 | –
24 | Cc1nn(C)c(Cl)c1CN(Cc1cccnc1)Cc1ccsc1 | 6.80 | –
25 | C=CCN(Cc1cccs1)C(=O)CSc1nnc(-c2ccc3c(c2)OCO3)o1 | 5.20 | –
26 | Cc1nccn1C1CCCN(C(=O)c2cc3c(F)cccc3s2)C1 (stereo not drawn) | 6.20 | –
27 | O=C1NCCn2ccc(Nc3nc(NC4CCC(O)CC4)ncc3Cl)c21 (stereo not drawn) | 5.20 | –
28 | COc1cccc(Nc2cc(C)nc(-c3ccccn3)n2)c1 | 5.49 | –
29 | Cc1cc(=O)n2nc(Oc3ccc(C#N)cc3Cl)sc2n1 | 4.80 | –
30 | Cc1c([N+](=O)[O-])c(C(=O)Nc2sc3c(c2C#N)CCC(C)C3)nn1C (stereo not drawn) | 5.60 | –
31 | O=C(NCC1CCCCN1C(=O)c1cccc2ccccc12)c1ccccc1 (stereo not drawn) | 5.20 | –
32 | CCS(=O)(=O)Nc1ccc(C2=NN(C(=O)c3cccs3)C(c3ccccc3OC)C2)cc1 (stereo not drawn) | 5.10 | –
33 | CS(=O)(=O)c1ccccc1C(=O)N(Cc1ccccc1)c1ccccc1 | 4.30 | –
34 | O=C(NCCc1ccn(-c2ccccc2)n1)C1CCCCC1 | 5.89 | –
35 | CN1CCN(c2nc(-c3ccc(Cl)cc3)c3c(N)n(C)nc3n2)CC1 | 5.70 | –
36 | O=C(NCc1ccncc1)c1ccccc1N1CCCN(C(=O)Cc2ccc(F)c(F)c2)CC1 | 6.89 | –
37 | Cc1cc(C#N)c([N+](=O)[O-])cc1Br | 6.70 | –
38 | Cc1cc(NC(=O)C2CCCCC2)n(-c2nc3c(c(=O)[nH]2)CCC3)n1 | 6.49 | –
39 | N#Cc1cc(N2CCCC2=O)ccc1Sc1ccccc1CO | 6.60 | –
40 | O=C(CN(Cc1ccccn1)Cc1ccccn1)NCc1ccc(-c2csnn2)cc1 | 5.40 | –
41 | N#Cc1cccc(Nc2nccc(N3CCC(NS(=O)(=O)c4cccc(C#N)c4)CC3)n2)c1 | 5.80 | –
42 | COc1ncc(-c2ccc3ncnc(N4CCOCC4)c3c2)cc1NS(C)(=O)=O | 6.30 | –
43 | CCc1cccc(CC)c1-n1c(SCC(=O)N2CC(=O)Nc3ccccc32)nnc1-c1cccnc1 | 4.60 | –
44 | N#Cc1cc(-c2ccnc(Nc3cccc(CN4CCOCC4)c3)n2)ccc1NCCN | 5.10 | –

Row | Compound | pIC50 | IC50
45 | N#Cc1cccc(CN2CCC(N(Cc3cccnc3)C(=O)c3cc(F)c(F)cc3F)CC2)c1 | 6.40 | –
46 | N#Cc1cccc(CN2CCC(c3nc(-c4ccc(C(F)(F)F)nc4)no3)CC2)c1 | 5.70 | –
47 | CN(Cc1ccc(F)cc1)c1ccc(OCC(=O)N2CCCCC2c2cccnc2)nn1 (stereo not drawn) | 6.49 | –
48 | CC(C)(C)C(=O)NCCc1csc(-c2ccc(F)cc2)n1 | 5.49 | –
49 | COc1ccccc1-c1c(C)[nH]c2nc(N)nc(C)c12 | 6.80 | –
50 | NCc1ccc2c(Cl)cc(Cl)c(O)c2n1 | 5.60 | –
51 | O=C(CC1(O)C(=O)N(Cc2ccccc2)c2ccc(Br)cc21)c1cccnc1 (stereo not drawn) | 5.30 | –
52 | O=C(Nc1cccc(F)c1)N1CCC(Oc2cccc(-c3cccnc3)c2)CC1 | 6.20 | –
53 | CN(Cc1nc2ccc(C(=O)NCC3CCCCC3)cc2[nH]1)C1CCCc2cccnc21 (stereo not drawn) | 6.30 | –
54 | O=C(c1ccc(Cl)cc1)c1ccc(OC(=O)N2CCOCC2)cc1 | 4.89 | –
55 | O=C(Cc1ccccc1)Nc1ccccc1C(=O)Nc1nccs1 | 4.40 | –
56 | Cc1cc(NC(=O)c2ccc([N+](=O)[O-])s2)ccc1Br | 6.60 | –
57 | Cc1cccc(NS(=O)(=O)c2cnc3sc(C)cn3c2=O)c1 | 5.89 | –
58 | CCOc1ccc(Nc2ccc(S(=O)(=O)N3CCN(C)CC3)cc2[N+](=O)[O-])cc1OCC | 5.10 | –
59 | O=[N+]([O-])c1cccc(Nc2cncc(-c3ccccc3CO)c2)c1 | 6.49 | –
60 | Nc1nc(-c2ccccn2)nc(-n2nc(-c3ccccc3)cc2N)n1 | 6.30 | –
61 | CCCCN(C(=O)c1ccc(NC(=O)C(C)C)cc1)c1ccccc1 | 4.70 | –
62 | O=C1CSC(c2cccnc2)N1c1ccc(Cl)cc1Cl (stereo not drawn) | 7.20 | –
63 | O=C(Nc1ccc(C(=O)N2CCCC2c2ccc3c(c2)OCCCO3)cc1)c1ccco1 (stereo not drawn) | 6.30 | –
64 | O=C(NCc1ccc(-n2cccc2)cc1)c1nc(Cn2ccc([N+](=O)[O-])n2)no1 | 5.60 | –
65 | COc1cc(F)c2ncc(F)c(CCN3CC[C@H](NCc4cc5c(cn4)OCS5)[C@@H](O)C3)c2c1 | 6.40 | –
66 | Cc1[nH]n2c(=O)c3c(nc2c1-c1ccc(Br)cc1)CCCC3 | 6.00 | –

Row | Compound | pIC50 | IC50
67 | COc1cc(-c2nc(N3CCOCC3)sc2-c2ccnc(NC3CCOCC3)n2)ccc1Cl | 6.60 | –
68 | Cn1ccnc1-c1nc(NCc2ccccc2Cl)cc(C2CC2)n1 | 6.20 | –
69 | CC(Cn1ccnc1)NC(=O)C=Cc1ccc(Cl)cc1 (stereo not drawn) | 6.40 | –
70 | COc1ccc(Nc2nc(-c3ccccn3)cs2)c(OC)c1 | 5.40 | –
71 | Cc1cnc(Nc2cc(Cc3ccccc3)nc(NC3CCC(O)CC3)n2)s1 (stereo not drawn) | 6.89 | –
72 | Cc1nc(C(=O)Nc2ccc3c(c2)OCO3)nn1-c1ccc(F)cc1 | 5.49 | –
73 | Cc1nc2c(-c3n[nH]c(-c4ccccc4N)n3)cccn2c1C | 5.40 | –
74 | Cc1ccccc1NS(=O)(=O)c1ccc2[nH]cc(C(=O)NC3CCCC(C)C3C)c(=O)c2c1 (stereo not drawn) | 5.30 | –
75 | O=C(Nc1ccccc1C(=O)Nc1ccccn1)c1ccco1 | – | > 50 µM (inactive)
76 | COc1ccccc1-n1c(SCC(=O)Nc2ccc3c(c2)OCO3)nc2c(c1=O)SCC2 | 4.40 | –
77 | COc1cc(C2SCC(=O)Nc3c2c(C)nn3-c2nc3ccccc3s2)cc(OC)c1O (stereo not drawn) | – | > 50 µM (inactive)
78 | CC(C(=O)Nc1ccc(Br)cc1)N1CCN(c2ccc([N+](=O)[O-])cc2)CC1 (stereo not drawn) | 5.60 | –
79 | Cc1cc(NC(=O)C2CC2)ccc1OC1CCN(Cc2ccco2)CC1 | 4.80 | –
80 | Cc1ccc(S(=O)(=O)Nc2ccc(CN3CCN(C(=O)c4cccc(C#N)c4)CC3)cc2)cc1 | 6.30 | –
81 | COc1ccc(C2CC(c3ccccc3Cl)=NN2C(=O)CNC(=O)C2CCCC2)cc1 (stereo not drawn) | 5.49 | –
82 | COc1ccc(NC(=O)c2ccc(NC(=O)CN(c3ccccc3C)S(C)(=O)=O)cc2)cc1 | 4.49 | –
83 | CC(c1cc(Cl)cc(Cl)c1)N(C)c1ncc2c(N)nc(N)nc2n1 (stereo not drawn) | 7.20 | –
84 | CCCN1CCN(Cc2ccc(S(=O)(=O)Nc3cccc(C)c3)cc2)CC1 | 6.10 | –
85 | NC(=O)c1cc(F)ccc1Nc1nc(NC2CCC(O)CC2)ncc1Br (stereo not drawn) | 5.60 | –
86 | Cc1ccc(S(=O)(=O)Nc2ccc(CN3CCN(C(=O)c4cccc(C)c4)CC3)cc2)cc1 | 6.30 | –
87 | COc1ccc(C2CC(c3ccccc3Cl)=NN2C(=O)CNC(=O)C2CCC2)cc1 (stereo not drawn) | 5.60 | –
88 | CC1=C(C(=O)Nc2ccc(Cl)cc2)C(c2ccncc2)n2ncc(C(=O)Nc3ccccc3)c2N1 (stereo not drawn) | 7.70 | –

Row | Compound | pIC50 | IC50
89 | C=CCn1nc([N+](=O)[O-])nc1Oc1ccc(Cl)cc1Cl | 6.60 | –
90 | O=C(Nc1nc(-c2ccccn2)cs1)C1CCc2ccccc2C1 (stereo not drawn) | 5.70 | –
91 | O=C(NCCc1ccccc1Cl)c1cccn1-c1cccnc1 | 6.40 | –
92 | O=C(NC1CCN(C2Cc3ccc(NS(=O)(=O)c4cc(F)cc(F)c4)cc3C2)CC1)C1CC1 (stereo not drawn) | – | > 50 µM (inactive)
93 | O=C(NCC(c1cccs1)N1CCOCC1)c1ccc([N+](=O)[O-])o1 (stereo not drawn) | 5.49 | –
94 | Cc1nc(N2CCC(C(=O)N3CCC(O)(c4cccnc4)CC3)CC2)nc2ccc(C(C)C)cc12 | 5.80 | –
95 | COc1ccc2ncc(Cl)c(CCN3CC[C@H](NCc4cc5c(cn4)OCS5)[C@@H](O)C3)c2n1 | 6.89 | –
96 | COc1ccc(S(=O)(=O)Nc2ccc(CN3CCN(C(=O)c4cccc(C#N)c4)CC3)cc2)cc1 | 6.00 | –
97 | CN(C)CCN(C)Cc1ccc(F)cc1NS(=O)(=O)c1ccc(Cl)c(Cl)c1 | 5.80 | –
98 | COc1ccc(-c2cnc(C)o2)cc1S(=O)(=O)Nc1ccc(C)cc1C | 5.60 | –
99 | COc1cccc(C(=O)[C@H]2C[C@@H]2CN(Cc2cccnc2)Cc2cccnc2)c1 | 7.00 | –
100 | CCN(CC)c1ncc(C(=O)c2ccc([N+](=O)[O-])o2)s1 | 5.40 | –
101 | Cn1ccnc1CN1CCc2[nH]cnc2C1c1ccccc1OCc1ccccc1 (stereo not drawn) | 4.40 | –
102 | CCCn1c(NC(=O)Cc2ccc(Cl)cc2)nc2ccccc21 | 6.20 | –
103 | Cc1ccc2onc(Nc3ccnc(Nc4cccc(S(C)(=O)=O)c4)n3)c2c1 | 5.40 | –
104 | N#Cc1cccc(Cc2cc(Nc3cc(C4CC4)[nH]n3)nc(N3CC[C@H]3C(N)=O)n2)c1 | 6.40 | –
105 | CC(C)c1nn(-c2nc(N)nc(-c3ccccn3)n2)c(N)c1C1CCCCC1 | 5.70 | –
106 | Cc1[nH]n2c(=O)c3c(nc2c1-c1ccc(Cl)cc1)CCCC3 | 6.40 | –
107 | Cc1cc(Br)cc(C(=O)c2c(C(C)C)c(=O)[nH]c(=O)n2Cc2ccnc(N)c2)c1 | 6.40 | –
108 | CC(C)(C)CC(=O)NCc1noc(COc2ccccc2)n1 | 5.60 | –
